# Source: publication PMC6449304, “Novel parameter describing restriction endonucleases: Secondary-Cognate-Specificity and chemical stimulation of TsoI leading to substrate specificity change” (Applied Microbiology and Biotechnology, 2019)
# Biological target: T1, TsoI (Thermus scotoductus, UniProt T1RQY5)
# T1 construct: gene tsoIRM; native enzyme purified from Thermus scotoductus RFL4; bifunctional REase-MTase, TspDTI subfamily
# T1 sequence (T1RQY5 1-1116): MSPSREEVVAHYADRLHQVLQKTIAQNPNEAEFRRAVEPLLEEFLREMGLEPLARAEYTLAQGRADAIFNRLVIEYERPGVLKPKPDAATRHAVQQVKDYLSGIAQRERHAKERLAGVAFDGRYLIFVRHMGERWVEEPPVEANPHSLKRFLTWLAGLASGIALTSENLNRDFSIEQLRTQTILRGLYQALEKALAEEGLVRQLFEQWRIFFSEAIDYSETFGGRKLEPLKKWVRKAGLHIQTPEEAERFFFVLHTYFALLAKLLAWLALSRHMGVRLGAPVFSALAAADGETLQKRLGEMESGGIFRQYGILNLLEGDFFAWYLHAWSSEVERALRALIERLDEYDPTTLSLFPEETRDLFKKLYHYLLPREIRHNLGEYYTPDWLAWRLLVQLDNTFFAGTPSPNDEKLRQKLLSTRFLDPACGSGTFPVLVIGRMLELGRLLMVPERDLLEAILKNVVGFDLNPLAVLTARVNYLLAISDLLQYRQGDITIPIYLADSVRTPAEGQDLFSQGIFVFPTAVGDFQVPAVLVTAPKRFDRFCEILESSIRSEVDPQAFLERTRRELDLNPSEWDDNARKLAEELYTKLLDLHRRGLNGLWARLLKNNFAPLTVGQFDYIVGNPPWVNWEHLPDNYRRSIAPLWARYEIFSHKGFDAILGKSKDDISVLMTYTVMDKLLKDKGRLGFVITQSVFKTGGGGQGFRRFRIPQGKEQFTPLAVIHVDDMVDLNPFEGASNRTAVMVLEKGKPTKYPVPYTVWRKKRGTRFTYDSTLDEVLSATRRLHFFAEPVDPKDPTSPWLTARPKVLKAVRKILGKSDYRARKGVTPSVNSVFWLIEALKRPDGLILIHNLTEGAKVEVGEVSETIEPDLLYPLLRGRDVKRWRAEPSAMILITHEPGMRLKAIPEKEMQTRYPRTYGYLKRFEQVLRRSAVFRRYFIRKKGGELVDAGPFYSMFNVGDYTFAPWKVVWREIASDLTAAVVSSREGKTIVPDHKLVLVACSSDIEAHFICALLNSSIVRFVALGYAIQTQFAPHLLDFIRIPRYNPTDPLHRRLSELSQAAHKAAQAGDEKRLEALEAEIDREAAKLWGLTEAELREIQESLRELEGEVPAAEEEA
# Experiment: DNA cleavage assay, agarose gel (stimulation of secondary-cognate-specificity cleavage)
# Assay type: biochemical
# Conditions: pUC19 supercoiled DNA; 500 uM compound (31.25-500 uM tested); 10 mM Tris-HCl pH 7.5, 10 mM MgCl2, 50 mM NaCl, 55 °C, 1 h; activator, presumed SAM-binding motif
compound,measurement,value
"Nc1ncnc2c1ncn2[C@@H]1O[C@H](CSC[C@H](N)C(=O)O)[C@@H](O)[C@H]1O [SAC, S-adenosyl-L-cysteine]","DNA cleavage assay, agarose gel (stimulation of secondary-cognate-specificity cl)",efficiency of TsoI SCS cleavage is significantly stimulated by high concentrations of SAC
